Assay results reported in patent publication US20080011613A1, “Method of electrolytically depositing a pharmaceutical coating onto a conductive osteal implant” (priority 2004, published 2008).

Experiment: Precipitation boundary of etidronate in the presence of Ca2+ by NaOH titration
Assay type: physicochemical
Conditions: Ca:etidronate molar ratio 2:1, titration with NaOH
Experimental: Etidronic acid has a molecular weight of 206.03 (Fluka, Switzerland). The precipitation boundary of etidronate in the presence of Ca^2+ was determined by titration and used for choosing the solution conditions suitable for electrolytic deposition (ELD). A series of 50 mL solutions containing etidronate (15, 10, 9, 5, 4, 2.5, 1.9, 1.25, 1.22, 1.15, 1.10, and 0.625 mM) and Ca(NO3)2 of different concentrations, with Ca:etidronate molar ratio all fixed at 2:1, were prepared and titrated with NaOH solutions until the first visual sign of turbidity (end point/the precipitation boundary). The pH and NaOH volume consumption at end points were recorded and the Ca^2+ and etidronate concentrations at this point was calculated using equation (Eq. 3): [formula] where C is the titrate (etidronate or Ca^2+) concentration (mM) at the end point, C0 is the titrate concentration (mM) before titration, and VNaOH is NaOH volume (mL) consumption at the end point of titration.
After the precipitation boundary was established, etidronate 5.0 mM, Ca^2+ 10 mM, and pH 4.50 were chosen as the solution conditions for ELD. […] This volume also provided reasonable space to accommodate the experiment setup, that is, two electrodes and the fixture.

Etidronate concentration at which no precipitation could be visually judged: < 1.15 mM
SMILES: CC(O)(P(=O)(O)O)P(=O)(O)O [etidronate, 1-hydroxy-ethylidene-1,1-diphosphonate]
